The text below walks through data of patent publication US11352331B2, “Crystal and salt of 4-(naphthalen-1-yl)-4H-1,2,4-triazole compound and preparation method therefor” (MEDSHINE DISCOVERY INC., priority 2017, dated 2022).

For series [1] the following is noted: human, 0-144 hour, after lesinurad, cited from earlier work.
Series [2] concerns Liver cells. The note with it: Dog; cited from earlier work.
For a further series, the system named is human liver cells. As to the kind of experiment: Metabolite detection after incubation in human liver cells for 120 minutes (LC-UV-MSn). Type of series: in vitro ADME. The note with it: 10 μM. The procedure:
The objective of this experiment is detect the metabolites of the compounds after incubation in human liver cells for 120 minutes using LC-UV-MS^n (n=1-2). After data collection, MetaboLynx™ software was used to analyze MS and MS^2 data.
After the cells were incubated with the samples for 2 hours, protein was precipitated using acetonitrile containing formic acid and then the mixture was centrifuged. The supernatant was taken out and blow-dried with nitrogen, and then redissolved and injected for analysis.

For series [3] the following is noted: Liver microsomes, Human; cited from earlier work.
Series [4] can be described thus: Pharmacokinetics in cynomolgus monkeys after IV and PO administration. To be noted: PO, 10 mg/kg. It is filed as in vivo. As to the method:
24 healthy adult male cynomolgus monkeys were divided into 8 groups (there were IV and PO groups for each compound) with 3 animals per group.
An appropriate amount of the samples was weighted and dissolved in a certain amount of DMSO by ultrasound, followed by addition of PEG400 solution to obtain clear solutions (DMSO/PEG400/H2O (5/40/55)) of the compounds to be tested with a concentration of 2 mg/mL for IV administration.
An appropriate amount of the samples was weighted and dissolved in a certain amount of DMSO by ultrasound, followed by addition of 0.5% MC solution to obtain suspensions (DMSO/0.5% MC (5/95)) of the compounds to be tested with a concentration of 2 mg/mL for PO administration.
24 male cynomolgus monkeys were divided into 8 groups with 3 animals per group, and the drugs were administered through IV and PO after the animals had been fasting overnight. The dose for IV administration was 2 mg/kg and the dosing volume was 1 mL/kg; the dose for PO administration was 10 mg/kg and the dosing volume was 5 mL/kg.
In the IV administration groups, approximately 200 μL of blood was collected 0.083, 0.25, 0.5, 1, 2, 4, 6, 8, and 24 hours after administration; the collected blood samples were added into anticoagulation tubes containing K2-EDTA and centrifuged at 3000 rpm for 15 minutes; the plasma was isolated and stored at −80° C. In the PO administration groups, the blood was collected 0.25, 0.5, 1, 2, 4, 6, 8, and 24 hours after administration, and other operations were the same as in the IV administration group. After the plasma samples were pre-treated to precipitate the protein, the drug concentration in the plasma was determined by LC/MS/MS method. The linear range of the analysis method was 20.00-6000 nM. In PO administration group, urine was collected 0-24 hours after administration, and the drug concentration in the urine was determined by LC/MS/MS method. The linear range of the analysis method was 20.00-6000 nM.

The conditions of series [5]: Liver microsomes, Dog; cited from earlier work.
Series [6] has as its system Liver cells. The note with it: Monkey; cited from earlier work.
For series [7] the following is noted: Liver microsomes, Rat; cited from earlier work.
The conditions of series [8]: Liver microsomes, Monkey; cited from earlier work.
Series [9] has as its system Liver cells. The note with it: Human; cited from earlier work.
Series [10] deals with Liver cells. The note with it: Rat; cited from earlier work.

Read-outs that look alike come from different tables or passages of the source.

On to `O=C(O)CSc1nnc(Br)n1-c1ccc(C2CC2)c2ccccc12` (racemic) [(±)-Lesinurad, lesinurad, reference compound], for which the “Percentage of the administered dose” value in series [1] (Faeces) was 1.5%; in series [1] (Urine) it was 31.3%. Moreover, the Amount of lesinurad and metabolites (Total 100) is 100% in the series on Liver cells [2]; 100% in series [3]; 100% in series [5]; 98.1% in the series with Liver cells [6]; 100% in series [7]; 92.1% in [8]. For the same compound, the figures for the Amount of lesinurad and metabolites (Total 100) in the series with Liver cells [9] and in the series with Liver cells [10] were 92.1% and 100%, respectively. For the same compound, the UV area percentage with human liver cells is recorded as 95.60%. The “Area under the curve AUG0-inf” value in series [4] was found to be 69.3 µM·h. Besides, in series [4] (urine 0-24 h), the “Mean drug concentration in urine (0-24 h) Curine, 0-24 h” value was found to be 71.622 µM. Moreover, the half-life in series [4] (male, cynomolgus monkey, plasma, po, read-out: Half-life T1/2 (converted)) was 3.78 h. Besides, the Cmax in [4] (male, cynomolgus monkey, plasma, po, read-out: Peak concentration Cmax) worked out at 37.2 µM. Also, the MRT inf in series [4] (male, cynomolgus monkey, plasma, po, read-out: Residence time MRT0-inf) came out at 3.44 h. Besides, the Tmax in series [4] (male, cynomolgus monkey, plasma, po, read-out: Time to peak Tmax) is 0.58 h.
